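1) Cells in 96-well plates. 2) Compound, 48 h, 5 concentrations. 3) Linear interpolation between surrounding doses. 4) Unreached endpoint = highest concentration. GI50: concentration for 50% inhibition of growth.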 Activity calls are given as the source filed them. No stated cut-off is given here; in the data, active = GI50 up to about 1.1 µM and inactive = higher.
Columns and labels:
Test in all cases: NCI-60 cell line screen, 48 h
CCRF-CEM = system: CCRF-CEM
RPMI-8226 = system: RPMI-8226
SF-268 = system: SF-268
HOP-18 = system: HOP-18
NCI-H460 = system: NCI-H460
HT-29 = system: HT-29
SN12C = system: SN12C
TK-10 = system: TK-10
SW-620 = system: SW-620
A549 = system: A549
HCT-116 = system: HCT-116
M19-MEL = system: M19-MEL
KM12 = system: KM12
IGROV-1 = system: IGROV-1
KM-20L2 = system: KM-20L2
LXFL 529 = system: LXFL 529
HOP-62 = system: HOP-62
MDA-MB-231 = system: MDA-MB-231
BT-549 = system: BT-549
T47D = system: T47D

Row | Compound | GI50 (CCRF-CEM) | GI50 (RPMI-8226) | GI50 (SF-268) | GI50 (HOP-18) | GI50 (NCI-H460) | GI50 (HT-29) | GI50 (SN12C) | GI50 (TK-10) | GI50 (SW-620) | GI50 (A549) | GI50 (HCT-116) | GI50 (M19-MEL) | GI50 (KM12) | GI50 (IGROV-1) | GI50 (KM-20L2) | GI50 (LXFL 529) | GI50 (HOP-62) | GI50 (MDA-MB-231) | GI50 (BT-549) | GI50 (T47D)
1 | COc1cc(OC)c(OC)cc1/C=N/NC(=O)N/N=C/c1cc(OC)c(OC)cc1OC | > 100 µM (inactive) | > 100 µM (inactive) | > 100 µM (inactive) | > 100 µM (inactive) | > 100 µM (inactive) | > 100 µM (inactive) | > 100 µM (inactive) | > 100 µM (inactive) | > 100 µM (inactive) | > 100 µM (inactive) | > 100 µM (inactive) | > 100 µM (inactive) | > 100 µM (inactive) | > 100 µM (inactive) | > 100 µM (inactive) | > 100 µM (inactive) | – | – | – | –
2 | COc1cc2c(c(OC)c1OC)-c1ccc(SC)c(=O)cc1C(CC(=O)Oc1cccc([N+](=O)[O-])c1)C2 (stereo not drawn) | 0.745 µM (active) | 0.647 µM (active) | 1.02 µM (active) | > 100 µM (inactive) | 0.45 µM (active) | 0.362 µM (active) | 1.11 µM (active) | > 90.8 µM (inactive) | 0.4 µM (active) | 1.16 µM (inactive) | 0.384 µM (active) | 0.458 µM (active) | 0.424 µM (active) | 3.44 µM (inactive) | 0.585 µM (active) | 0.619 µM (active) | – | – | – | –
3 | C=C1CC2CC[C@@]34C[C@H]5O[C@@H]6C(O[C@H]7CC[C@H](CC(=O)OC8[C@H](C)C9OC%10C[C@]%11(C[C@@H]%12O[C@]%13(C[C@H](C)[C@@H]%14O[C@H]([C@H](O)C[C@H](O)CO)C[C@@H]%14O%13)C[C@H](C)[C@@H]%12O%11)OC%10CC9O[C@H]8C[C@H]8O[C@H](CC[C@@H]1O2)C[C@@H](C)C8=C)O[C@H]7[C@@H]6O3)[C@@H]5O4 (stereo partly drawn) | 0.000588 µM (active) | 0.000255 µM (active) | 0.00376 µM (active) | < 0.01 µM (active) | 0.000859 µM (active) | 0.000372 µM (active) | 0.00405 µM (active) | 0.00681 µM (active) | 0.000482 µM (active) | 0.00147 µM (active) | 0.000513 µM (active) | 0.000618 µM (active) | 0.00046 µM (active) | 0.00218 µM (active) | 0.000395 µM (active) | 0.00129 µM (active) | 0.00131 µM (active) | 0.000728 µM (active) | 1.31 µM (inactive) | 2.65 µM (inactive)
4 | Cn1c(=O)nc2n(-c3cc(Cl)ccc3Cl)c3ccccc3nc-2c1=O | 4.02 µM (inactive) | 4.71 µM (inactive) | 11.9 µM (inactive) | 12.4 µM (inactive) | 2.53 µM (inactive) | 1.54 µM (inactive) | 4.48 µM (inactive) | 12.3 µM (inactive) | 2.18 µM (inactive) | 4 µM (inactive) | 4.33 µM (inactive) | 1.35 µM (inactive) | 5.58 µM (inactive) | 13 µM (inactive) | 2.93 µM (inactive) | 13.8 µM (inactive) | 12 µM (inactive) | – | – | –
5 | Oc1ccc(I)c2cccnc12 | 2.42 µM (inactive) | 2.89 µM (inactive) | 7.45 µM (inactive) | 8.07 µM (inactive) | 3.95 µM (inactive) | 38.2 µM (inactive) | 13.4 µM (inactive) | 37.2 µM (inactive) | 4.43 µM (inactive) | 5.52 µM (inactive) | 4.71 µM (inactive) | 14.4 µM (inactive) | 14.8 µM (inactive) | 8.18 µM (inactive) | 50.4 µM (inactive) | 4.11 µM (inactive) | 14.8 µM (inactive) | – | – | –
6 | Cc1c2ccccc2c(C)c2c3c(ccc12)C(=O)C=CC3=O | 2.49 µM (inactive) | 29.9 µM (inactive) | 18.4 µM (inactive) | 23.8 µM (inactive) | > 67.6 µM (inactive) | 28 µM (inactive) | 27.8 µM (inactive) | 19.2 µM (inactive) | 21.6 µM (inactive) | > 83.9 µM (inactive) | 22.5 µM (inactive) | 17.1 µM (inactive) | 27.3 µM (inactive) | 20 µM (inactive) | 41.9 µM (inactive) | 17.3 µM (inactive) | > 44.5 µM (inactive) | – | – | –
7 | CC(=O)N(C)c1ccc2ncccc2c1[N+](=O)[O-] | > 100 µM (inactive) | > 100 µM (inactive) | > 100 µM (inactive) | > 100 µM (inactive) | > 100 µM (inactive) | > 100 µM (inactive) | > 100 µM (inactive) | > 100 µM (inactive) | > 100 µM (inactive) | > 100 µM (inactive) | > 100 µM (inactive) | > 100 µM (inactive) | > 100 µM (inactive) | > 100 µM (inactive) | > 100 µM (inactive) | > 100 µM (inactive) | > 100 µM (inactive) | – | – | –
8 | BrC(Br)=C1C(=C(Br)Br)C(Br)C1Br (stereo not drawn) | 0.0989 µM (active) | 0.158 µM (active) | 0.274 µM (active) | 2.91 µM (inactive) | 0.114 µM (active) | 0.362 µM (active) | 0.716 µM (active) | 0.682 µM (active) | 0.207 µM (active) | 0.796 µM (active) | 0.302 µM (active) | 0.63 µM (active) | 0.61 µM (active) | 0.628 µM (active) | 1.38 µM (inactive) | 0.439 µM (active) | 1.02 µM (active) | 1.12 µM (inactive) | 0.327 µM (active) | 1.76 µM (inactive)
9 | CC1CCC[P+](Cc2ccccc2)(c2ccccc2)CC1 (stereo not drawn) | 42.3 µM (inactive) | 7.23 µM (inactive) | 89.1 µM (inactive) | 0.078 µM (active) | 79.6 µM (inactive) | – | > 100 µM (inactive) | > 100 µM (inactive) | 94.4 µM (inactive) | > 100 µM (inactive) | – | 27.6 µM (inactive) | – | 39 µM (inactive) | 50.6 µM (inactive) | 15.8 µM (inactive) | > 100 µM (inactive) | – | – | –
10 | COP(=O)(CC(=O)C1OC(C)(C)OC1C(O)COCc1ccccc1)OC (stereo not drawn) | > 100 µM (inactive) | > 100 µM (inactive) | > 100 µM (inactive) | > 100 µM (inactive) | > 100 µM (inactive) | > 100 µM (inactive) | > 100 µM (inactive) | > 100 µM (inactive) | > 100 µM (inactive) | > 100 µM (inactive) | > 100 µM (inactive) | > 100 µM (inactive) | > 100 µM (inactive) | > 100 µM (inactive) | > 100 µM (inactive) | > 100 µM (inactive) | > 100 µM (inactive) | – | – | –
11 | C[C@@]12CCCc3coc(c31)C(=O)c1cc3c(cc12)C(=O)C=CC3=O [XESTOQUINONE] | 2.23 µM (inactive) | 5.98 µM (inactive) | – | 15 µM (inactive) | 21.8 µM (inactive) | 22.3 µM (inactive) | 20.3 µM (inactive) | 21.2 µM (inactive) | 5.08 µM (inactive) | 23.7 µM (inactive) | – | 13.8 µM (inactive) | 21.7 µM (inactive) | 18.5 µM (inactive) | 18.4 µM (inactive) | 15 µM (inactive) | – | – | – | –
12 | [C-]#[N+]C(C)(C)C[C@H]1CC(C)C2CCC(C)C3([N+]#[C-])CCC(=C)C1[C@H]23 (stereo partly drawn) | 2.37 µM (inactive) | – | 0.308 µM (active) | 0.046 µM (active) | – | 0.413 µM (active) | 0.195 µM (active) | 5.62 µM (inactive) | 5.08 µM (inactive) | 1.58 µM (inactive) | 0.184 µM (active) | 1.5 µM (inactive) | 0.308 µM (active) | 1.34 µM (inactive) | 5.36 µM (inactive) | 1.82 µM (inactive) | 2.55 µM (inactive) | – | – | –
13 | C=CC/N=C1/N=C(CC(=O)OCC)CS1 | > 100 µM (inactive) | – | > 100 µM (inactive) | > 100 µM (inactive) | > 100 µM (inactive) | > 100 µM (inactive) | > 100 µM (inactive) | > 100 µM (inactive) | > 100 µM (inactive) | > 100 µM (inactive) | > 100 µM (inactive) | > 100 µM (inactive) | > 100 µM (inactive) | > 100 µM (inactive) | > 100 µM (inactive) | > 100 µM (inactive) | > 100 µM (inactive) | – | – | –
14 | Cc1ccc(NC(=O)C(=O)Cc2cc[n+]([O-])cc2)cc1 | > 100 µM (inactive) | > 100 µM (inactive) | > 100 µM (inactive) | > 100 µM (inactive) | > 100 µM (inactive) | > 100 µM (inactive) | > 100 µM (inactive) | > 100 µM (inactive) | > 100 µM (inactive) | > 100 µM (inactive) | > 100 µM (inactive) | > 100 µM (inactive) | > 100 µM (inactive) | > 100 µM (inactive) | > 100 µM (inactive) | > 100 µM (inactive) | > 100 µM (inactive) | – | – | –

Reference: ChEMBL document CHEMBL1201862, “PubChem BioAssay data set” (2004)
